Experiment [1] has as its system SARS-CoV-2. The experiment in a line: Inhibitory effect of ATRA on SARS-CoV-2 proliferation (nucleocapsid Western blotting and real-time PCR). The format is cell-based. To be noted: MOI 0.01, 24 hours. How it is done: In this Example, the inhibitory effect of SARS-CoV-2 proliferation by ATRA, a therapeutic agent for promyelocytic leukemia known to have inhibitory activity against Pin1. ATRA was added to VeroE6/TMPRSS2 cells to the final concentrations of 0, 0.5, 1, 5, 10, 20, and 30 μM, to which SARS-CoV-2 was infected at multiplicity of infection (MOI) of 0.01 after 2 hours, followed by recovering cell lysate after 24 hours and then detecting SARS-CoV-2 nucleocapsid, Pin1 and actin as an internal standard in the cells by Western blotting. SARS-CoV-2 proliferation was evaluated on the basis of the expression level of SARS-CoV-2 nucleocapsid in the cells.
On the technique in general: In western blotting, separated proteins are transferred to a membrane and probed.

Experiment [2] deals with SARS-CoV-2. The class given is cell-based. As to conditions: MOI 0.01 to 0.02, 24 hours.
Experiment [3] relates to SARS-CoV-2. Nature of the experiment: Suppressing effect against SARS-CoV-2 proliferation at 5 or 10 μM (nucleocapsid Western blotting). The format is cell-based. To be noted: 5 μM, MOI 10, cell lysate 8 hours after infection.
For experiment [4], the system named is SARS-CoV-2. The experiment in a line: Confirmation test of suppressing effect against SARS-CoV-2 proliferation (nucleocapsid Western blotting, VeroE6/TMPRSS2 cells). The class given is cell-based. To be noted: 20 μM Pin1 inhibitor, VeroE6/TMPRSS2 cells, MOI 10, cell lysate 8 hours after infection, nucleocapsid band area vs no inhibitor; for inhibition at 20 µM: Severe acute respiratory syndrome coronavirus 2, VeroE6/TMPRSS2, 8 h, read-out: Inhibition Rate.

Experiment [5] has as its system SARS-CoV-2. The format is cell-based. As to conditions: MOI 0.01, 24 hours after infection, real-time PCR. Background: Quantitative PCR measures a nucleic acid by following its amplification.
The test system of experiment [6] is feline coronavirus (FCoV). To be noted: cited from earlier work.

Where two headings read alike, the source gives them in different places.

Consider 36 molecules from US20240024266A1, “Therapeutic Agent or Prophylactic Agent for COVID-19” (priority 2020, published 2024).

One may read the inhibition as the percentage by which the read-out fell short of the control.

Consider `CC1=C(/C=C/C(C)=C/C=C/C(C)=C/C(=O)O)C(C)(C)CCC1` [ATRA], for which the “proliferation of SARS-CoV-2” value with SARS-CoV-2 [1] (5 μM or more) is listed as “suppressed”; with SARS-CoV-2 [1] (10 μM or more), “substantially suppressed”. Take `O=C(Nc1ccc(OCc2ccccc2)cc1C(=O)O)c1ccc2ccccc2c1` [H-77]: the SARS-CoV-2 proliferation entry with SARS-CoV-2 [2] (10 μM added 2 hours before the infection) is listed as “suppressed”; with SARS-CoV-2 [2] (10 μM added after the infection (2 hours, 6 hours)) it was “suppressed”; with SARS-CoV-2 [2] (10 μM added at the time of the infection) it was “suppressed”. For the same molecule, the SARS-CoV-2 detection entry with SARS-CoV-2 [2] (10 μM added 6 hours after the infection) is “slightly detected”. Further, the “inhibition rate of SARS-CoV-2 nucleocapsid (Western blotting)” value (from here on “inhibition rate … (Western blotting)”) in the experiment on SARS-CoV-2 [3] is reported as “high inhibition rate”. The “Inhibition Rate” value with SARS-CoV-2 [4] was 96%. Further, the “proliferation of SARS-CoV-2 (SARS-CoV-2 RNA level in supernatant)” value in the experiment on SARS-CoV-2 [5] (5 μM) was “suppressed”; in the experiment on SARS-CoV-2 [5] (7.5 μM), “substantially suppressed”. As for `O=C(Cn1c2ccccc2c2ccccc21)Nc1ccc(OCc2ccc3ccccc3c2)cc1C(=O)O` [H-537], the “inhibition rate … (Western blotting)” value in the experiment on SARS-CoV-2 [3] was “high inhibition rate”. Further, the inhibition at 20 µM with SARS-CoV-2 [4] came to 96%. With `O=C(O)c1cc(NC(=O)c2ccc3ccccc3n2)cc(NC(=O)n2c3ccccc3c3ccccc32)c1` [H-688], the “inhibition rate … (Western blotting)” value with SARS-CoV-2 [3] is “high inhibition rate”. The inhibition at 20 µM in the experiment with SARS-CoV-2 [4] was 98%. With `Nc1cc(NC(=O)N(c2ccccc2)c2ccccc2)cc(C(=O)O)c1` [H-727], the inhibition at 20 µM with SARS-CoV-2 [4] is 50%. For `COC(=O)/C(=C/c1ccc2ccccc2c1)CC(=O)N1CCCc2ccccc21` [H-739], the inhibition at 20 µM in the experiment with SARS-CoV-2 [4] was found to be 51%. On the same count and under the same terms, to `O=C(O)/C(=C/c1ccc2ccccc2c1)CC(=O)N1CCc2ccccc2C1` [H-742] belongs 57%; to `O=C(O)/C(=C/c1ccc2ccccc2c1)CC(=O)N1CCCc2ccccc21` [H-743], 59%. `Nc1cc(NC(=O)C2c3ccccc3-c3ccccc32)cc(C(=O)OCc2ccccc2)c1` [H-755-2]: in the experiment with SARS-CoV-2 [4], the “Inhibition Rate” value is recorded as 75%.

As to `Nc1cc(NC(=O)C2c3ccccc3-c3ccccc32)cc(C(=O)OCc2ccccc2)c1` [H-755], the inhibition at 20 µM in the experiment on SARS-CoV-2 [4] was determined as 78%.

Turning to `COC(=O)c1cc(NC(=O)COc2ccccn2)cc(NC(=O)n2c3ccccc3c3ccccc32)c1` [H-762], the inhibition at 20 µM in the experiment on SARS-CoV-2 [4] turned out to be 83%. With `O=C(COc1ccccn1)Nc1cc(NC(=O)n2c3ccccc3c3ccccc32)cc(C(=O)O)c1` [H-763], the inhibition at 20 µM in the experiment on SARS-CoV-2 [4] stood at 97%. Turning to `O=C(Nc1ccc(OCc2ccc3ccccc3c2)cc1C(=O)O)c1ccc2c(c1)OCCO2` [H-787], the inhibition at 20 µM with SARS-CoV-2 [4] stood at 97%. As for `O=C(Nc1ccc(OCc2ccccc2)cc1C(=O)O)c1ccc2c(c1)OCCO2` [H-800], the inhibition at 20 µM in the experiment on SARS-CoV-2 [4] came to 91%. On the same count and under the same terms, for `COC(=O)c1cc(N)cc(NC(=O)CN(c2ccccc2)c2ccccc2)c1` [H-816] the value was 63%; for `Nc1cc(NC(=O)CN(c2ccccc2)c2ccccc2)cc(C(=O)O)c1` [H-817], 61%; for `O=C(CN(c1ccccc1)c1ccccc1)Nc1cc(NC(=O)c2ccc3ccccc3c2)cc(C(=O)O)c1` [H-819], 95%. As to `O=C(CN(c1ccccc1)c1ccccc1)Nc1cc(NC(=O)c2ccc3ccccc3n2)cc(C(=O)O)c1` [H-821], the inhibition at 20 µM with SARS-CoV-2 [4] worked out at 95%. Regarding `COC(=O)c1cc(OCc2ccncc2)ccc1NC(=O)c1cccnc1` [H-832], the inhibition at 20 µM in the experiment on SARS-CoV-2 [4] was determined as 65%. Turning to `O=C(Cn1c2ccccc2c2ccccc21)Nc1ccc(OCc2ccccc2)cc1C(=O)O` [H-835], the inhibition at 20 µM with SARS-CoV-2 [4] was 99%. In the case of `O=C(Cc1cccc2ccccc12)Nc1ccc(OCc2ccccc2)cc1C(=O)O` [H-839], the inhibition at 20 µM in the experiment on SARS-CoV-2 [4] is 83%. Consider `COC(=O)[C@@H](Cc1ccc2ccccc2c1)NC(=O)c1ccc(CNC(=O)OC(C)(C)C)cc1` [H-848], for which, in the experiment with SARS-CoV-2 [4], the inhibition at 20 µM came out at 53%.

In the case of `CC(C)(C)OC(=O)NCc1ccc(C(=O)N[C@H](Cc2ccc3ccccc3c2)C(=O)O)cc1` [H-849], the inhibition at 20 µM with SARS-CoV-2 [4] was found to be 50%.

Consider `NCc1ccc(C(=O)N[C@H](Cc2ccc3ccccc3c2)C(=O)O)cc1` [H-851], for which, in the experiment with SARS-CoV-2 [4], the inhibition at 20 µM is 59%. For the molecule `O=C(O)[C@@H](Cc1ccc2ccccc2c1)NC(=O)n1c2ccccc2c2ccccc21` [H-853], the inhibition at 20 µM with SARS-CoV-2 [4] was found to be 99%. As for `COC(=O)c1cc(NC(=O)CC2c3ccccc3-c3ccccc32)cc(NC(=O)c2ccc3ccccc3c2)c1` [H-857], the inhibition at 20 µM in the experiment with SARS-CoV-2 [4] worked out at 55%. For the molecule `COC(=O)c1cc(NC(=O)CC2c3ccccc3-c3ccccc32)cc(NC(=O)c2ccc3c(c2)OCCO3)c1` [H-859], the inhibition at 20 µM in the experiment on SARS-CoV-2 [4] amounted to 89%. For the molecule `COC(=O)c1cc(NC(=O)c2ccc(CN)cc2)cc(NC(=O)n2c3ccccc3c3ccccc32)c1` [H-870], in the experiment on SARS-CoV-2 [4], the inhibition at 20 µM is 97%. As to `NCc1ccc(C(=O)Nc2cc(NC(=O)n3c4ccccc4c4ccccc43)cc(C(=O)O)c2)cc1` [H-871], in the experiment on SARS-CoV-2 [4], the inhibition at 20 µM turned out to be 61%. In the case of `COC(=O)c1cc(NC(=O)OC(C)(C)C)cc(NC(=O)n2ccc3ccccc32)c1` [H-872], in the experiment on SARS-CoV-2 [4], the inhibition at 20 µM is 78%.

`CC(C)(C)OC(=O)Nc1cc(NC(=O)n2ccc3ccccc32)cc(C(=O)O)c1` [H-873]: the inhibition at 20 µM in the experiment on SARS-CoV-2 [4] is 67%. Consider `O=C(O)c1cc(NC(=O)c2ccc3c(c2)OCCO3)cc(NC(=O)n2ccc3ccccc32)c1` [H-876], for which the inhibition at 20 µM in the experiment on SARS-CoV-2 [4] was determined as 69%. The same measure, in the same setting: for `O=C(O)c1cc(NC(=O)c2ccc3ccccc3c2)cc(NC(=O)n2ccc3ccccc32)c1` [H-878] the value was 56%. For the molecule `COC(=O)c1cc(NC(=O)c2ccc(CN)cc2)cc(NC(=O)n2ccc3ccccc32)c1` [H-881], in the experiment with SARS-CoV-2 [4], the inhibition at 20 µM worked out at 88%. For `COC(=O)c1cc(NC(=O)c2ccc(CN(C)C)cc2)cc(NC(=O)n2c3ccccc3c3ccccc32)c1` [H-890], in the experiment on SARS-CoV-2 [4], the inhibition at 20 µM was found to be 54%. With `S=C(SC(=S)N1CCCCC1)N1CCCCC1` [dipentamethylenethiuram monosulfide], the “replication of feline coronavirus (FCoV)” value in experiment [6] is on record as “inhibited”.
